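Growth conditions: 96-well plates. Treatment: test compound, 48 hours, 5 concentrations. Analysis: linear interpolation between bracketing concentrations; unreached endpoints set to highest concentration. TGI is the concentration that stops growth completely.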
Key:
Assay in all cases: inhibition of tumour cell growth, NCI panel, 48 h
786-0 renal = system: 786-0 renal
A498 renal = system: A498 renal
A549 NSCLC = system: A549 NSCLC
ACHN renal = system: ACHN renal
BT-549 breast = system: BT-549 breast
CAKI-1 renal = system: CAKI-1 renal
CCRF-CEM leukemia = system: CCRF-CEM leukemia
COLO 205 colon = system: COLO 205 colon
DU-145 prostate = system: DU-145 prostate
EKVX NSCLC = system: EKVX NSCLC
HCC-2998 colon = system: HCC-2998 colon
HCT-116 colon = system: HCT-116 colon
HCT-15 colon = system: HCT-15 colon
HL-60(TB) leukemia = system: HL-60(TB) leukemia
HOP-62 NSCLC = system: HOP-62 NSCLC
HOP-92 NSCLC = system: HOP-92 NSCLC
HS 578T breast = system: HS 578T breast
HT29 colon = system: HT29 colon
IGROV1 ovarian = system: IGROV1 ovarian
K-562 leukemia = system: K-562 leukemia
KM12 colon = system: KM12 colon
LOX IMVI melanoma = system: LOX IMVI melanoma
M14 melanoma = system: M14 melanoma
MALME-3M melanoma = system: MALME-3M melanoma
MCF7 breast = system: MCF7 breast
MDA-MB-231 breast = system: MDA-MB-231 breast
MDA-MB-435 = system: MDA-MB-435
MDA-N = system: MDA-N
MOLT-4 leukemia = system: MOLT-4 leukemia
NCI-H226 lung = system: NCI-H226 lung
NCI-H23 lung = system: NCI-H23 lung
NCI-H460 lung = system: NCI-H460 lung
NCI-H522 lung = system: NCI-H522 lung
NCI/ADR-RES ovarian = system: NCI/ADR-RES ovarian
OVCAR-3 ovarian = system: OVCAR-3 ovarian
OVCAR-4 ovarian = system: OVCAR-4 ovarian
OVCAR-5 ovarian = system: OVCAR-5 ovarian
OVCAR-8 ovarian = system: OVCAR-8 ovarian
PC-3 prostate = system: PC-3 prostate
RPMI-8226 leukemia = system: RPMI-8226 leukemia
RXF 393 renal = system: RXF 393 renal
SF-268 CNS = system: SF-268 CNS
SF-295 CNS = system: SF-295 CNS
SK-MEL-2 melanoma = system: SK-MEL-2 melanoma
SK-MEL-28 melanoma = system: SK-MEL-28 melanoma
SK-MEL-5 melanoma = system: SK-MEL-5 melanoma
SK-OV-3 ovarian = system: SK-OV-3 ovarian
SNB-19 CNS = system: SNB-19 CNS
SNB-75 CNS = system: SNB-75 CNS
SW-620 colon = system: SW-620 colon
TK-10 renal = system: TK-10 renal
U251 CNS = system: U251 CNS
UACC-257 melanoma = system: UACC-257 melanoma
UACC-62 melanoma = system: UACC-62 melanoma
UO-31 renal = system: UO-31 renal
SN12C renal = system: SN12C renal
SR leukemia = system: SR leukemia
T-47D breast = system: T-47D breast
SF-539 CNS = system: SF-539 CNS

Q: Which results are given for `O=c1oc2ccc3ccccc3c2cc1-c1cn2c(n1)sc1ccccc12`?
A: TGI (786-0 renal): > 100 µM; TGI (A498 renal): > 100 µM; TGI (A549 NSCLC): > 100 µM; TGI (ACHN renal): > 100 µM; TGI (BT-549 breast): > 100 µM; TGI (CAKI-1 renal): > 100 µM; TGI (CCRF-CEM leukemia): > 100 µM; TGI (COLO 205 colon): > 100 µM; TGI (DU-145 prostate): > 100 µM; TGI (EKVX NSCLC): > 100 µM; TGI (HCC-2998 colon): > 100 µM; TGI (HCT-116 colon): > 100 µM; TGI (HCT-15 colon): > 100 µM; TGI (HL-60(TB) leukemia): > 100 µM; TGI (HOP-62 NSCLC): > 100 µM; TGI (HOP-92 NSCLC): > 100 µM; TGI (HS 578T breast): > 100 µM; TGI (HT29 colon): > 100 µM; TGI (IGROV1 ovarian): > 100 µM; TGI (K-562 leukemia): > 100 µM; TGI (KM12 colon): > 100 µM; TGI (LOX IMVI melanoma): > 100 µM; TGI (M14 melanoma): > 100 µM; TGI (MALME-3M melanoma): > 100 µM; TGI (MCF7 breast): > 100 µM; TGI (MDA-MB-231 breast): > 100 µM; TGI (MDA-MB-435): > 100 µM; TGI (MDA-N): > 100 µM; TGI (MOLT-4 leukemia): 14 µM; TGI (NCI-H226 lung): > 100 µM; TGI (NCI-H23 lung): > 100 µM; TGI (NCI-H460 lung): > 100 µM; TGI (NCI-H522 lung): > 100 µM; TGI (NCI/ADR-RES ovarian): > 100 µM; TGI (OVCAR-3 ovarian): > 100 µM; TGI (OVCAR-4 ovarian): > 100 µM; TGI (OVCAR-5 ovarian): > 100 µM; TGI (OVCAR-8 ovarian): > 100 µM; TGI (PC-3 prostate): > 100 µM; TGI (RPMI-8226 leukemia): > 100 µM; TGI (RXF 393 renal): > 100 µM; TGI (SF-268 CNS): > 100 µM; TGI (SF-295 CNS): > 100 µM; TGI (SK-MEL-2 melanoma): > 100 µM; TGI (SK-MEL-28 melanoma): > 100 µM; TGI (SK-MEL-5 melanoma): > 100 µM; TGI (SK-OV-3 ovarian): > 100 µM; TGI (SNB-19 CNS): > 100 µM; TGI (SNB-75 CNS): > 100 µM; TGI (SW-620 colon): > 100 µM; TGI (TK-10 renal): > 100 µM; TGI (U251 CNS): > 100 µM; TGI (UACC-257 melanoma): > 100 µM; TGI (UACC-62 melanoma): > 100 µM; TGI (UO-31 renal): > 100 µM

Q: What does the source list for `C1=C(c2ccccc2)O[C@H](COCc2ccccc2)C(OCc2ccccc2)[C@@H]1OCc1ccccc1` (some centres not stated)?
A: TGI (786-0 renal): > 10 µM; TGI (A549 NSCLC): > 10 µM; TGI (CAKI-1 renal): > 10 µM; TGI (CCRF-CEM leukemia): > 10 µM; TGI (COLO 205 colon): > 10 µM; TGI (DU-145 prostate): > 10 µM; TGI (EKVX NSCLC): > 10 µM; TGI (HCC-2998 colon): > 10 µM; TGI (HCT-15 colon): > 10 µM; TGI (HL-60(TB) leukemia): > 10 µM; TGI (HOP-62 NSCLC): > 10 µM; TGI (HT29 colon): > 10 µM; TGI (IGROV1 ovarian): > 10 µM; TGI (K-562 leukemia): > 10 µM; TGI (KM12 colon): > 10 µM; TGI (M14 melanoma): > 10 µM; TGI (MALME-3M melanoma): > 10 µM; TGI (MCF7 breast): > 10 µM; TGI (MDA-MB-231 breast): > 10 µM; TGI (MDA-N): > 10 µM; TGI (MOLT-4 leukemia): > 10 µM; TGI (NCI-H23 lung): > 10 µM; TGI (OVCAR-8 ovarian): > 10 µM; TGI (PC-3 prostate): > 10 µM; TGI (RPMI-8226 leukemia): > 10 µM; TGI (RXF 393 renal): > 10 µM; TGI (SF-268 CNS): > 10 µM; TGI (SF-295 CNS): > 10 µM; TGI (SK-MEL-28 melanoma): > 10 µM; TGI (SK-MEL-5 melanoma): > 10 µM; TGI (SK-OV-3 ovarian): > 10 µM; TGI (SN12C renal): > 10 µM; TGI (SNB-75 CNS): > 10 µM; TGI (SR leukemia): > 10 µM; TGI (SW-620 colon): > 10 µM; TGI (T-47D breast): > 10 µM; TGI (TK-10 renal): > 10 µM; TGI (UACC-257 melanoma): > 10 µM; TGI (UACC-62 melanoma): > 10 µM

Q: What does the source list for `CC(C)(Oc1ccc2c(=O)cc(-c3ccccc3)oc2c1)C(=O)N1CCN(c2ccccc2)CC1`?
A: TGI (786-0 renal): > 10 µM; TGI (A549 NSCLC): > 10 µM; TGI (CAKI-1 renal): > 10 µM; TGI (CCRF-CEM leukemia): > 10 µM; TGI (DU-145 prostate): > 10 µM; TGI (EKVX NSCLC): > 10 µM; TGI (HCC-2998 colon): > 10 µM; TGI (HCT-15 colon): > 10 µM; TGI (HL-60(TB) leukemia): 4.38 µM; TGI (HOP-62 NSCLC): > 10 µM; TGI (HT29 colon): > 10 µM; TGI (IGROV1 ovarian): > 10 µM; TGI (K-562 leukemia): > 10 µM; TGI (KM12 colon): > 10 µM; TGI (LOX IMVI melanoma): > 10 µM; TGI (M14 melanoma): > 10 µM; TGI (MALME-3M melanoma): > 10 µM; TGI (MCF7 breast): > 10 µM; TGI (MDA-MB-231 breast): > 10 µM; TGI (MDA-N): > 10 µM; TGI (MOLT-4 leukemia): > 10 µM; TGI (NCI-H23 lung): > 10 µM; TGI (OVCAR-8 ovarian): > 10 µM; TGI (PC-3 prostate): > 10 µM; TGI (RPMI-8226 leukemia): > 10 µM; TGI (RXF 393 renal): 6.73 µM; TGI (SF-268 CNS): > 10 µM; TGI (SF-295 CNS): > 10 µM; TGI (SK-MEL-28 melanoma): > 10 µM; TGI (SK-MEL-5 melanoma): > 10 µM; TGI (SK-OV-3 ovarian): > 10 µM; TGI (SN12C renal): > 10 µM; TGI (SNB-75 CNS): > 10 µM; TGI (SR leukemia): > 10 µM; TGI (SW-620 colon): > 10 µM; TGI (T-47D breast): > 10 µM; TGI (TK-10 renal): > 10 µM; TGI (UACC-257 melanoma): > 10 µM; TGI (UACC-62 melanoma): > 10 µM

Q: What does the source list for `Cc1cc(C)nc(NCCC(O)(P(=O)(O)O)P(=O)(O)O)n1`?
A: TGI (786-0 renal): > 100 µM; TGI (A549 NSCLC): > 100 µM; TGI (ACHN renal): > 100 µM; TGI (BT-549 breast): > 100 µM; TGI (CAKI-1 renal): > 100 µM; TGI (COLO 205 colon): > 100 µM; TGI (DU-145 prostate): > 100 µM; TGI (EKVX NSCLC): > 100 µM; TGI (HCC-2998 colon): > 100 µM; TGI (HCT-116 colon): > 100 µM; TGI (HCT-15 colon): > 100 µM; TGI (HOP-62 NSCLC): > 100 µM; TGI (IGROV1 ovarian): > 100 µM; TGI (KM12 colon): > 100 µM; TGI (LOX IMVI melanoma): > 100 µM; TGI (M14 melanoma): > 100 µM; TGI (MALME-3M melanoma): > 100 µM; TGI (MCF7 breast): > 100 µM; TGI (MDA-MB-231 breast): > 100 µM; TGI (MDA-N): > 100 µM; TGI (NCI-H226 lung): > 100 µM; TGI (NCI-H23 lung): > 100 µM; TGI (NCI-H460 lung): > 100 µM; TGI (NCI-H522 lung): > 100 µM; TGI (NCI/ADR-RES ovarian): > 100 µM; TGI (OVCAR-3 ovarian): > 100 µM; TGI (OVCAR-5 ovarian): > 100 µM; TGI (PC-3 prostate): > 100 µM; TGI (RXF 393 renal): > 100 µM; TGI (SF-268 CNS): > 100 µM; TGI (SF-295 CNS): > 100 µM; TGI (SF-539 CNS): > 100 µM; TGI (SK-MEL-5 melanoma): > 100 µM; TGI (SK-OV-3 ovarian): > 100 µM; TGI (SNB-19 CNS): > 100 µM; TGI (TK-10 renal): > 100 µM; TGI (UACC-257 melanoma): > 100 µM; TGI (UACC-62 melanoma): > 100 µM; TGI (UO-31 renal): > 100 µM

Source: PubChem BioAssay (NCI)
